PubChem BioAssay (NCI)
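Method: 48-hour compound exposure of cells in 96-well plates, five concentrations, linear interpolation of endpoints. GI50: concentration for 50% inhibition of growth. TGI marks complete inhibition of growth.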

What was measured:
Experiment in all cases: growth of human tumour cells (NCI), 48 h
[1] = system: SK-MEL-2 melanoma
[2] = system: LOX IMVI melanoma
[3] = system: CCRF-CEM leukemia
[4] = system: HCT-15 colon
[5] = system: UACC-62 melanoma
[6] = system: UO-31 renal
[7] = system: NCI-H460 lung
[8] = system: U251 CNS
[9] = system: SW-620 colon
[10] = system: HOP-92 NSCLC

SMILES	TGI [1] [µM]	TGI [2] [µM]	TGI [3] [µM]	TGI [4] [µM]	TGI [5] [µM]	TGI [6] [µM]	TGI [7] [µM]	TGI [8] [µM]	GI50 [1] [µM]	GI50 [2] [µM]	GI50 [9] [µM]	GI50 [3] [µM]	GI50 [4] [µM]	GI50 [7] [µM]	GI50 [8] [µM]	GI50 [10] [µM]	TGI [10] [µM]	TGI [9] [µM]	GI50 [5] [µM]	GI50 [6] [µM]
Cc1cccc(NC(N)=S)c1	> 100	> 100	> 100	> 100	> 100	> 100	> 100	> 100	–	–	–	–	–	–	–	–	–	–	–	–
COc1ccc2c(c1)C(=O)c1c-2n(CCCCl)c(=O)c2cc([N+](=O)[O-])ccc12	> 95.6	0.111	0.212	> 100	1.81	–	–	0.476	3.56	< 0.01	0.123	< 0.01	0.0575	< 0.0178	< 0.01	–	–	–	–	–
CN(C)C=O.CN(C)C=O.CN1C(C(=O)Nc2ccccn2)=C([O-])c2ccccc2S1(=O)=O.CN1C(C(=O)Nc2ccccn2)=C([O-])c2ccccc2S1(=O)=O.[Cu+2]	> 100	> 100	–	> 100	41.2	> 100	> 100	> 100	–	–	–	–	–	32.5	–	22.1	51.1	> 100	–	–
N=C(N)SC(c1ccccc1)c1ccccc1	32	30.7	32.1	40.7	30.8	23.2	37.1	29.4	–	–	–	–	–	–	–	–	22.9	44.6	–	–
Nc1ccc([As](=O)(O)O)cc1	> 100	> 100	> 100	> 100	> 100	> 100	> 100	> 100	–	–	–	–	–	–	–	–	> 100	> 100	–	–
Cn1ncc2c(=O)[nH]c(-c3ccccc3)nc21	> 100	> 100	> 100	> 100	> 100	> 100	–	> 100	–	–	–	–	–	–	–	–	–	> 100	–	–
CC(C)(c1ccccc1)c1ccc(Oc2ccc3c(c2)-c2nc-3nc3[nH]c(nc4nc(nc5[nH]c(n2)c2ccc(Oc6ccc(C(C)(C)c7ccccc7)cc6)cc52)-c2cc(Oc5ccc(C(C)(C)c6ccccc6)cc5)ccc2-4)c2ccc(Oc4ccc(C(C)(C)c5ccccc5)cc4)cc32)cc1	> 100	> 100	> 100	–	> 100	> 100	> 100	> 100	–	–	–	–	–	–	–	–	> 100	> 100	–	–
O=C(Nc1ccc(-n2ccc3c(NC(=O)c4ccccc4)ncnc32)cc1)Nc1ccc(Cl)c(C(F)(F)F)c1	5.66	6.77	3.73	2.19	4.59	4.73	3.06	2.55	2.44	2	2.17	0.806	0.765	1.35	1.2	1.41	4	4.96	1.9	2.04
O=C(O)\C=C/C=C/C=C/C=C/C(=O)O	> 100	> 100	> 100	> 100	> 100	> 100	> 100	> 100	–	–	–	–	–	–	–	–	–	> 100	–	–
CCCCCCCCCCCCCCC(C(=O)[O-])[n+]1ccccc1 (stereo not given)	> 100	> 100	> 100	> 100	> 100	> 100	> 100	> 100	–	–	–	–	–	–	–	–	> 100	> 100	–	–
Cc1cc(N2CCCCC2)nc(NCc2cc(Nc3ccnc4cc(Cl)ccc34)ccc2F)n1	3.59	3.29	4.33	3.8	3.44	3.13	4.17	3.15	1.89	1.73	1.45	0.921	1.84	1.99	1.71	–	–	3.59	1.62	1.61
CC(C)C(C)C(O)C(O)C(C)C1CCC2C3COC(=O)C4CC(O)C(O)CC4(C)C3CCC12C (stereo not given)	> 100	> 100	67.5	> 100	> 100	> 100	> 100	> 100	–	–	–	–	–	–	–	–	> 100	> 100	–	–
NS(=O)(=O)c1ccc(C(=O)O)cc1	> 100	> 100	> 100	> 100	> 100	> 100	–	> 100	–	–	–	–	–	–	–	–	> 100	> 100	–	–
COc1ccc(C(=O)NNC(=O)c2nsc3ccccc23)cc1	> 100	> 100	> 100	> 100	> 100	> 100	–	> 100	–	–	–	–	–	–	–	–	> 100	> 100	–	–
NC(CCCNc1ccc(O)cc1)C(=O)O (stereo not given)	> 66.8	33.3	> 71.1	> 60.7	38.2	> 100	> 100	> 100	–	–	–	–	–	–	–	–	63.3	42.7	–	–
CC1(C)CCCC2(C)C3=C(CCC12)C(=O)OC3 (stereo not given)	> 100	> 100	> 100	> 100	> 100	> 100	–	> 100	–	–	–	–	–	–	–	–	> 100	> 100	–	–
COC(=O)C12OCC34C(CC5C(C)C6=CC(=O)OC6=CC5(C)C3C(O)C1O)OC(=O)C(OC(C)=O)C24 (stereo not given)	21	37	32.4	42.5	21.9	46	51.8	57.8	–	–	–	–	–	–	–	–	35.2	26.2	–	–
Cn1c(=O)c2c(nc(N3CCOCC3)n2CCCNCC(O)c2ccc(O)c(O)c2)n(C)c1=O (stereo not given)	> 100	> 100	> 100	> 100	> 100	> 100	> 100	> 100	–	–	–	–	–	–	–	–	> 100	> 100	–	–
O=C1CC(c2ccccc2)NCCCCN2CC(CN1)C(C(O)c1ccccc1)C2=O (stereo not given)	> 100	> 100	> 100	> 100	> 100	> 100	> 100	> 100	–	–	–	–	–	–	–	–	> 100	> 100	–	–
CC1(C)CCc2cc3c(cc2O1)OC(C)(C)CC3=O	> 100	> 100	> 100	> 100	> 100	> 100	> 100	> 100	–	–	–	–	–	–	–	–	70.7	> 100	–	–
CCc1cc(C)cc2[n+]1CC=C2C	> 100	> 100	–	–	–	> 100	> 100	> 100	–	–	–	–	–	–	–	–	> 100	> 100	–	–
